Laboratory results published in PubChem BioAssay (NCI).
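A five-concentration, 48-hour dose response in 96-well plates underlies each endpoint, interpolated linearly between surrounding concentrations. The concentration for 50% growth inhibition is given as GI50. TGI denotes the concentration required for complete inhibition of growth.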

What was measured:
Test in all cases: growth of human tumour cells (NCI), 48 h
[1] = system: SK-MEL-28 melanoma
[2] = system: M14 melanoma
[3] = system: HT29 colon
[4] = system: HS 578T breast
[5] = system: HCT-15 colon
[6] = system: MDA-MB-231 breast
[7] = system: SF-539 CNS
[8] = system: UACC-257 melanoma
[9] = system: EKVX NSCLC
[10] = system: OVCAR-4 ovarian
[11] = system: SW-620 colon
[12] = system: K-562 leukemia
[13] = system: OVCAR-3 ovarian
[14] = system: MCF7 breast
[15] = system: SF-295 CNS
[16] = system: COLO 205 colon
[17] = system: RXF 393 renal
[18] = system: NCI-H522 lung
[19] = system: KM12 colon
[20] = system: NCI-H23 lung
[21] = system: MALME-3M melanoma
[22] = system: DU-145 prostate
[23] = system: IGROV1 ovarian
[24] = system: HOP-62 NSCLC
[25] = system: NCI/ADR-RES ovarian
[26] = system: CCRF-CEM leukemia
[27] = system: A498 renal
[28] = system: CAKI-1 renal
[29] = system: OVCAR-5 ovarian
[30] = system: SN12C renal
[31] = system: SK-MEL-2 melanoma
[32] = system: HOP-92 NSCLC
[33] = system: SK-OV-3 ovarian
[34] = system: SK-MEL-5 melanoma
[35] = system: 786-0 renal
[36] = system: LOX IMVI melanoma
[37] = system: TK-10 renal
[38] = system: SR leukemia
[39] = system: HCC-2998 colon
[40] = system: SNB-75 CNS
[41] = system: NCI-H460 lung
[42] = system: PC-3 prostate
[43] = system: OVCAR-8 ovarian
[44] = system: MOLT-4 leukemia
[45] = system: HL-60(TB) leukemia
[46] = system: HCT-116 colon
[47] = system: UO-31 renal
[48] = system: SF-268 CNS
[49] = system: MDA-MB-435
[50] = system: A549 NSCLC
[51] = system: UACC-62 melanoma
[52] = system: BT-549 breast
[53] = system: ACHN renal
[54] = system: SNB-19 CNS
[55] = system: NCI-H226 lung
[56] = system: U251 CNS
[57] = system: RPMI-8226 leukemia
[58] = system: MDA-MB-468 breast

Work on `Cn1cc(-c2nc(N)nnc2-c2c[nH]c3ccc(Br)cc23)c2cc(Br)cnc21` yielded a GI50 [1] of 0.324 µM, a TGI [1] of 17.8 µM and a GI50 [2] of 0.148 µM. The TGI [2] was 13.9 µM, the GI50 [3] was 0.269 µM and the TGI [3] was 1.04 µM. For the same compound, the GI50 [4] was 0.285 µM, the TGI [4] was 38 µM and the GI50 [5] was 0.177 µM. It also gave a TGI [5] of 11 µM, a GI50 [6] of 0.442 µM and a TGI [6] of 11.7 µM. The GI50 [7] was 0.154 µM, the TGI [7] was 0.532 µM and the GI50 [8] was 11 µM. It also gave a TGI [8] of 23.5 µM, a GI50 [9] of 0.881 µM and a TGI [9] of 23.7 µM. For the same compound, the GI50 [10] was 0.978 µM, the TGI [10] was 20.2 µM and the GI50 [11] was 0.217 µM. It also gave a TGI [11] of 18.4 µM, a GI50 [12] of 0.049 µM and a TGI [12] greater than 35.6 µM. The GI50 [13] was 0.0649 µM, the TGI [13] was 2.51 µM and the GI50 [14] was 0.0583 µM. The TGI [14] was 15.9 µM, the GI50 [15] was 0.075 µM and the TGI [15] was 12.8 µM. It also gave a GI50 [16] of 0.248 µM, a TGI [16] of 0.762 µM and a GI50 [17] of 0.167 µM. The TGI [17] was 3.84 µM, the GI50 [18] was 0.0212 µM and the TGI [18] was 0.0619 µM. The GI50 [19] was 0.146 µM, the TGI [19] was 11.3 µM and the GI50 [20] was 0.373 µM. For the same compound, the TGI [20] was 14.9 µM, the GI50 [21] was 0.135 µM and the TGI [21] was 20.3 µM. It also gave a GI50 [22] of 0.352 µM, a TGI [22] of 12.8 µM and a GI50 [23] of 0.398 µM. The TGI [23] was 18.8 µM, the GI50 [24] was 0.42 µM and the TGI [24] was 19.5 µM. The GI50 [25] was 0.432 µM, the TGI [25] was 7.08 µM and the GI50 [26] was 0.279 µM. For the same compound, the TGI [26] was greater than 100 µM, the GI50 [27] was 0.662 µM and the TGI [27] was 5.32 µM. The GI50 [28] was 0.184 µM, the TGI [28] was 18.2 µM and the GI50 [29] was 0.422 µM. It also gave a TGI [29] of 15.6 µM, a GI50 [30] of 0.423 µM and a TGI [30] of 14.5 µM. The GI50 [31] was 0.194 µM, the TGI [31] was 14.8 µM and the GI50 [32] was 1.27 µM. The TGI [32] was 11.4 µM, the GI50 [33] was 0.432 µM and the TGI [33] was 20.2 µM. It also gave a GI50 [34] of 0.114 µM, a TGI [34] of 3.91 µM and a GI50 [35] of 0.422 µM. It also gave a TGI [35] of 16.1 µM, a GI50 [36] of 0.299 µM and a TGI [36] of 15.8 µM. For the same compound, the GI50 [37] was 12.6 µM, the TGI [37] was 50.4 µM and the GI50 [38] was 0.043 µM. The TGI [38] was greater than 52.9 µM, the GI50 [39] was 0.379 µM and the TGI [39] was 11.4 µM. For the same compound, the GI50 [40] was 0.192 µM, the TGI [40] was 2.91 µM and the GI50 [41] was 0.349 µM. For the same compound, the TGI [41] was 11.2 µM, the GI50 [42] was 0.13 µM and the TGI [42] was 30.1 µM. For the same compound, the GI50 [43] was 0.45 µM, the TGI [43] was 9.02 µM and the GI50 [44] was 0.341 µM. For the same compound, the TGI [44] was 20.3 µM, the GI50 [45] was 0.144 µM and the TGI [45] was 0.824 µM. For the same compound, the GI50 [46] was 0.141 µM, the TGI [46] was 3.36 µM and the GI50 [47] was 0.349 µM. It also gave a TGI [47] of 16.5 µM, a GI50 [48] of 1.62 µM and a TGI [48] of 22 µM. The GI50 [49] was 0.032 µM, the TGI [49] was 0.12 µM and the GI50 [50] was 0.455 µM. It also gave a TGI [50] of 29.1 µM, a GI50 [51] of 0.0473 µM and a TGI [51] of 16.4 µM. It also gave a GI50 [52] of 0.227 µM, a TGI [52] of 7.72 µM and a GI50 [53] of 0.748 µM. For the same compound, the TGI [53] was 13.2 µM, the GI50 [54] was 0.454 µM and the TGI [54] was 16.5 µM. For the same compound, the GI50 [55] was 0.582 µM, the TGI [55] was 8.66 µM and the GI50 [56] was 0.349 µM. For the same compound, the TGI [56] was 13.3 µM, the GI50 [57] was 0.422 µM and the TGI [57] was greater than 100 µM. The GI50 [58] was 0.069 µM and the TGI [58] was 1.03 µM.
